# Like-named read-outs stand apart in the source and are kept apart here.
# Experiments:
# [1] = system: wtSARS-CoV strain PUMC01 F5; assay type: cell-based, SARS-CoV
# in vitro = settings: human
# [2] = system: HIV/SARS-CoV S pseudovirus; assay: organism not typed; settings: HepG2
# [3] = system: HIV/SARS-CoV S pseudovirus
# TfR = assay type: cell-based
# ACE2 = assay type: cell-based, human
# CD59 = assay type: cell-based
Compound,CC50 (in vitro) [mM],IC50 [2] [mM],SI (CC50/IC50) [3],also measured
O=C(O)C=Cc1ccccc1O [2-Hydroxycinnamic acid],2.5 ± 0.122,0.3 ± 0.013,,Anti-SARS-CoV activity in wtSARS-CoV infection [1]: did not show any anti-SARS-CoV activities
"OCCc1ccccc1 [2-Phenylethanol (phenethy alcohol), 2-Phenylethanol]",24.5 ± 1.53,4.1 ± 0.199,,Anti-SARS-CoV activity in wtSARS-CoV infection [1]: did not show any anti-SARS-CoV activities
CC(=O)c1ccccc1O [2′-Hydroxyacetophenone],1.8 ± 0.071,1.8 ± 0.102,1,
"COc1ccc(C=CC(=O)O)cc1OC [3,4-Dimethoxycinnamic acid]",10 ± 0.62,5 ± 0.233,2,
C=CCc1ccc(OC)cc1 [4-Allylanisole],8 ± 0.563,8.4 ± 0.65,,
COc1cc(C=CC=O)ccc1O [4-Hydroxy-3-methoxy cinnamaldehyde],0.7 ± 0.043,0.3 ± 0.013,2.3,
COc1cc(C=CC(=O)O)ccc1O [4-Hydroxy-3-methoxycinnamic acid],10 ± 0.555,5 ± 0.312,2,
O=c1cc(O)c2ccccc2o1 [4-Hydroxycoumarin],10.3 ± 0.66,10.3 ± 0.5,1,
O=c1ccc2ccc(O)cc2o1 [7-Hydroxycoumarin],10.7 ± 0.56,2.5 ± 0.172,4.3,
Oc1cc(O)c2c(c1)O[C@@]1(c3ccc(O)c(O)c3)Oc3cc(O)c4c(c3[C@@H]2[C@H]1O)O[C@H](c1ccc(O)c(O)c1)[C@H](O)[C@H]4c1c(O)cc(O)c2c1O[C@H](c1ccc(O)c(O)c1)[C@H](O)C2 [Cinnamtannin B1],0.242 ± 0.0148,0.0329 ± 0.0028,,IC50 with virus pretreated (1 h) compared with drug added simultaneously (0 h) [1]: not different; Effect on TfR expression (TfR): up-regulated; ACE2 expression versus untreated control (positive percentages and MFI) (ACE2): no significant difference
CC(=O)OC/C=C/c1ccccc1 [Cinnamylacetate],,,1,IC50 [3]: 7.1 ± 0.35 mM; CC50 (HepG2 cells): 7.1 ± 0.42 mM
CCOC(=O)/C=C/c1ccccc1 [Ethylcinnamate],14.1 ± 1.22,7.1 ± 0.532,2.0,
C=CC(C)(C)c1cc(/C=C/C(=O)c2ccc(O)cc2)c(OC)cc1O [Licochalcone-A],,,1,IC50 [3]: 0.03 ± 0.003 mM; CC50 (HepG2 cells): 0.03 ± 0.001 mM
Oc1cc(O)c2c(c1)O[C@H](c1ccc(O)c(O)c1)[C@H](O)[C@H]2c1c(O)cc(O)c2c1O[C@H](c1ccc(O)c(O)c1)[C@@H](O)C2 [Procyanidin B1],0.656 ± 0.0367,0.161 ± 0.0203,,IC50 with virus pretreated (1 h) compared with drug added simultaneously (0 h) [1]: not different; Effect on TfR expression (TfR): did not affect; Effect on CD59 expression (CD59): did not affect; ACE2 expression versus untreated control (positive percentages and MFI) (ACE2): no significant difference
O=C/C=C/c1ccccc1 [Trans-cinnamaldehyde],0.2 ± 0.014,0.2 ± 0.016,1,
O=C(O)/C=C/c1ccccc1 [Trans-cinnamic acid],,,,Anti-SARS-CoV activity in wtSARS-CoV infection [1]: did not show any anti-SARS-CoV activities; IC50 [3]: 3 ± 0.178 mM; CC50 (HepG2 cells): 22.4 ± 1.23 mM
Cc1ccc(C(C)C)cc1 [p-Cymene],75 ± 4.35,75 ± 5.55,1,
"Oc1cc(O)c2c(c1)O[C@H](c1ccc(O)c(O)c1)[C@H](O)[C@H]2c1c(O)cc(O)c2c1O[C@H](c1ccc(O)c(O)c1)[C@H](O)C2 [procyanidins B2, procyanidin B2]",,,,Anti-SARS-CoV activity in wtSARS-CoV infection [1]: did not inhibit; Effect on TfR expression (TfR): nor up-regulate
Isoeugenol,,,,IC50 [3]: 2 ± 0.142 mM

# Reference: PMC7114128 (Antiviral Research, 2009)
